According to patent US8435978B2, “Substituted sulfonamide compounds” (Gruenenthal GmbH, priority 2006, dated 2013):
Where a name gives a salt, the structure may show the parent alone.

What was measured:
human B1R receptor = biological target: T1, human B1R receptor (Homo sapiens, UniProt P46663); test: Functional study on the bradykinin receptor 1 (B1R), FLIPR Ca2+ assay, hB1R cells; type: cell-based; details: CHO-K1, test substance 10 μM, agonist Lys-Des-Arg9-bradykinin 0.5 nM, % inhibition compared with the maximum achievable inhibition, read-out: B1R Antagonism, human [10 μM] % Inhibition
T1 construct: host or cells: CHO K1 cells (Chinese hamster ovary), stably transfected
T1 sequence (P46663 1-353): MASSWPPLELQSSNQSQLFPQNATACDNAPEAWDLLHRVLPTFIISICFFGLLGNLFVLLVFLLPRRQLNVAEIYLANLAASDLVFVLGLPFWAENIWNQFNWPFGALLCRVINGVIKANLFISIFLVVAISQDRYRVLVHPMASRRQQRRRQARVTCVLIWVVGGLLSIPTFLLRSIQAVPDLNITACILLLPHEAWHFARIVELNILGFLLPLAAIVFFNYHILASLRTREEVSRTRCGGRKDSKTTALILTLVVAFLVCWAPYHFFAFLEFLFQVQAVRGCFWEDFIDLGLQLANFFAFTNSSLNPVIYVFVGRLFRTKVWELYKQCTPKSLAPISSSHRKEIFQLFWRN
In short: (§1)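 Cells were dye-loaded 60 min at 37 °C, equilibrated 20 min at room temperature, then given 10 μM compound. Ten minutes later the species-matched agonist was added (0.5 nM Lys-Des-Arg9-bradykinin, human; 100 nM Des-Arg9-bradykinin, rat) and Ca2+ influx suppression expressed as % of maximum inhibition.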

B1R receptor of the rat = biological target: T2, B1R receptor of the rat (Rattus norvegicus, UniProt P97583); test: Functional study on the bradykinin receptor 1 (B1R), FLIPR Ca2+ assay, rB1R cells; type: cell-based; details: CHO-K1, test substance 10 μM, agonist Des-Arg9-bradykinin 100 nM, % inhibition compared with the maximum achievable inhibition, read-out: B1R Antagonism, rat [10 μM] % Inhibition
T2 construct: host or cells: CHO K1 cells (Chinese hamster ovary), stably transfected
T2 sequence (P97583 1-337): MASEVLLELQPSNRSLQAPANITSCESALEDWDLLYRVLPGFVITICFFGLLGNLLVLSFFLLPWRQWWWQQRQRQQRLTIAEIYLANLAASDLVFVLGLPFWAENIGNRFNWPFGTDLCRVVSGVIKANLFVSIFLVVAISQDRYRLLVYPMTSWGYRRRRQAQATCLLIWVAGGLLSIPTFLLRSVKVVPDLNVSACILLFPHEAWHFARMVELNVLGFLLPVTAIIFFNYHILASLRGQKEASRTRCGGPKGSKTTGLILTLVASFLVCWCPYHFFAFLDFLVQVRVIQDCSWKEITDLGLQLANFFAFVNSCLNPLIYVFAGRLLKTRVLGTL
In short: as §1

SMILES	inhibition at 10 µM (human B1R receptor) [%]	inhibition at 10 µM (B1R receptor of the rat) [%]
O=C(COCC1CCCCN1S(=O)(=O)c1c(Cl)cccc1Cl)N1CCN(c2ccc(C(F)(F)F)cc2)CC1 (stereo not drawn) [Example 550, 2-((1-(2,6-dichlorophenylsulfonyl)piperidin-2-yl)methoxy)-1-(4-(4-(trifluoromethyl)phenyl)piperazin-1-yl)ethanone]	57.8	101
COc1cc(C)c(S(=O)(=O)N2CCCC2COCC(=O)N2CCN(Cc3ccc(Cl)cc3)CC2)c(C)c1 (stereo not drawn) [Example 352, 1-(4-(4-chlorobenzyl)piperazin-1-yl)-2-((1-(4-methoxy-2,6-dimethylphenylsulfonyl)pyrrolidin-2-yl)methoxy)ethanone]	104	104
COc1cc(C)c(S(=O)(=O)N2CCCCC2COCC(=O)Nc2cc(-c3ccccc3OC)[nH]n2)c(C)c1 (stereo not drawn) [Example 540, 2-((1-(4-methoxy-2,6-dimethylphenylsulfonyl)piperidin-2-yl)methoxy)-N-(5-(2-methoxyphenyl)-1H-pyrazol-3-yl)acetamide]	7.17	100
CN1CCN(C(=O)COCC2CCCCN2S(=O)(=O)c2c(Cl)cccc2Cl)C(c2ccccc2)C1 (stereo not drawn) [Example 455, 2-((1-(2,6-dichlorophenylsulfonyl)piperidin-2-yl)methoxy)-1-(4-methyl-2-phenylpiperazin-1-yl)ethanone]	103	99.3
O=C(COCC1Cc2ccccc2CN1S(=O)(=O)c1ccc(Cl)cc1Cl)N1CCCC1CN1CCCCC1 (stereo not drawn) [Example 51, 2-[2-(2,4-dichloro-phenylsulfonyl)-1,2,3,4-tetrahydro-isoquinolin-3-ylmethoxy]-1-(2-piperidin-1-ylmethyl-pyrrolidin-1-yl)-ethanone]	65.1	87.9
CCN(CC)CCN(CCN(CC)CC)C(=O)COCC1Cc2ccccc2CN1S(=O)(=O)c1c(C)cc(C)cc1C (stereo not drawn) [Example 48, N,N-bis-(2-diethylamino-ethyl)-2-[2-(2,4,6-trimethyl-phenylsulfonyl)-1,2,3,4-tetra-hydro-isoquinolin-3-ylmethoxy]-acetamide]	66.6	30.5
CN1CCC(N2CCN(C(=O)COCC3CCCCN3S(=O)(=O)c3csc4ccccc34)CC2)CC1 (stereo not drawn) [Example 137, 2-((1-(benzo[b]thiophen-3-ylsulfonyl)piperidin-2-yl)methoxy)-1-(4-(1-methylpiperidin-4-yl)piperazin-1-yl)ethanone]	102	98.8
O=C(COCC1CCCCN1S(=O)(=O)c1c(Cl)cccc1Cl)N1CCN(Cc2ccccc2F)CC1 (stereo not drawn) [Example 454, 2-((1-(2,6-dichlorophenylsulfonyl)piperidin-2-yl)methoxy)-1-(4-(2-fluorobenzyl)piperazin-1-yl)ethanone]	102	100
COc1cc(C)c(S(=O)(=O)N2CCCC2COCC(=O)N2CCN(c3ccc(C(F)(F)F)cn3)CC2)c(C)c1 (stereo not drawn) [Example 468, 2-((1-(4-methoxy-2,6-dimethylphenylsulfonyl)pyrrolidin-2-yl)methoxy)-1-(4-(5-(trifluoromethyl)pyridin-2-yl)piperazin-1-yl)ethanone]	84.5	101
O=C(COCC1CCCN1S(=O)(=O)c1c(Cl)cc(Cl)cc1Cl)NCc1ccc(CN2CCOCC2)cc1 (stereo not drawn) [Example 49, N-(4-morpholin-4-ylmethyl-benzyl)-2-[1-(2,4,6-trichloro-phenylsulfonyl)-pyrrolidin-2-ylmethoxy]-acetamide]	65.9	92.3
O=C(COCC1CCCN1S(=O)(=O)c1cc(Cl)sc1Cl)N1CCN(Cc2ccccc2)CC1 (stereo not drawn) [Example 478, 1-(4-benzylpiperazin-1-yl)-2-((1-(2,5-dichlorothiophen-3-ylsulfonyl)pyrrolidin-2-yl)methoxy)ethanone]	36.2	90.2
CN1CCC(N2CCN(C(=O)COCC3CCCCN3S(=O)(=O)c3cc4ccccc4s3)CC2)CC1 (stereo not drawn) [Example 171, 2-((1-(benzo[b]thiophen-2-ylsulfonyl)piperidin-2-yl)methoxy)-1-(4-(1-methylpiperidin-4-yl)piperazin-1-yl)ethanone]	102	82.8
COc1ccc2cc(S(=O)(=O)N3CCCCC3COCC(=O)N3CCN(C4CCN(C)CC4)CC3)ccc2c1 (stereo not drawn) [Example 210, 2-((1-(6-methoxynaphthalen-2-ylsulfonyl)piperidin-2-yl)methoxy)-1-(4-(1-methylpiperidin-4-yl)piperazin-1-yl)ethanone]	106	96
Cc1cc(C)c(S(=O)(=O)N2Cc3ccccc3CC2COCC(=O)NCc2cccc(N3CCN(C)CC3)c2)c(C)c1 (stereo not drawn) [Example 33, N-[3-(4-methyl-piperazin-1-yl)-benzyl]-2-[2-(2,4,6-trimethyl-phenylsulfonyl)-1,2,3,4-tetrahydro-isoquinolin-3-ylmethoxy]-acetamide]	82.7	47.7
COc1cc(C)c(S(=O)(=O)N2CCCC2COCC(=O)NCCCCN2CCCC2)c(C)c1 (stereo not drawn) [Example 523, 2-((1-(4-methoxy-2,6-dimethylphenylsulfonyl)pyrrolidin-2-yl)methoxy)-N-(4-(pyrrolidin-1-yl)butyl)acetamide]	66.4	101
Cc1cc(C)c(S(=O)(=O)N2CCCCC2COCC(=O)N2CCC(c3nc4cc(C)ccc4[nH]3)CC2)c(C)c1 (stereo not drawn) [Example 222, 2-((1-(mesitylsulfonyl)piperidin-2-yl)methoxy)-1-(4-(5-methyl-1H-benzo[d]imidazol-2-yl)piperidin-1-yl)ethanone]	7.55	114
O=C(COCC1CCCN1S(=O)(=O)c1c(Cl)cccc1Cl)N1CCN(Cc2ccc(Cl)c(Cl)c2)CC1 (stereo not drawn) [Example 357, 1-(4-(3,4-dichlorobenzyl)piperazin-1-yl)-2-((1-(2,6-dichlorophenylsulfonyl)pyrrolidin-2-yl)methoxy)ethanone]	79.4	104
COc1ccc(CN2CCN(C(=O)COCC3CCCN3S(=O)(=O)c3c(Cl)cccc3Cl)CC2)cc1 (stereo not drawn) [Example 451, 2-((1-(2,6-dichlorophenylsulfonyl)pyrrolidin-2-yl)methoxy)-1-(4-(4-methoxybenzyl)piperazin-1-yl)ethanone]	80.7	99.2
COc1cc(C)c(S(=O)(=O)N2CCCC2COCC(=O)NCc2ccc(N3CCCCC3)cc2)c(C)c1 (stereo not drawn) [Example 60, 2-[1-(4-methoxy-2,6-dimethyl-phenylsulfonyl)-pyrrolidin-2-ylmethoxy]-N-(4-piperidin-1-yl-benzyl)-acetamide]	59.9	109
Cc1cccc(Cl)c1S(=O)(=O)N1CCC[C@H]1COCC(=O)N1CCN(C2CCN(C)CC2)CC1 [Example 162, (S)-2-((1-(2-chloro-6-methylphenylsulfonyl)pyrrolidin-2-yl)methoxy)-1-(4-(1-methylpiperidin-4-yl)piperazin-1-yl)ethanone dihydrochloride]	99.5	99.5
COc1cc(C)c(S(=O)(=O)N2CCCCC2COCC(=O)NCc2ccc(CN3CCN(C)CC3)cc2)c(C)c1 (stereo not drawn) [Example 7, 2-[1-(4-methoxy-2,6-dimethyl-phenylsulfonyl)-piperidin-2-ylmethoxy]-N-[4-(4-methyl-piperazin-1-ylmethyl)-benzyl]-acetamide]	102	99.3
CN(C)CCCN1CCN(C(=O)COCC2CCCCN2S(=O)(=O)c2cccc(C(F)(F)F)c2)CC1 (stereo not drawn) [Example 58, 1-[4-(3-dimethylamino-propyl)-piperazin-1-yl]-2-[1-(3-trifluoromethyl-phenylsulfonyl)-piperidin-2-ylmethoxy]-ethanone]	62.2	10.2
COc1cc(C)c(S(=O)(=O)N2CCCCC2COCC(=O)N2CCN(Cc3ccc(Cl)cc3)CC2)c(C)c1 (stereo not drawn) [Example 384, 1-(4-(4-chlorobenzyl)piperazin-1-yl)-2-((1-(4-methoxy-2,6-dimethylphenylsulfonyl)piperidin-2-yl)methoxy)ethanone]	105	98.6
Cc1cc(C)c(S(=O)(=O)N2Cc3ccccc3CC2COCC(=O)N2CCN(C3CCN(C)CC3)CC2)c(C)c1 (stereo not drawn) [Example 5, 1-[4-(1-methyl-piperidin-4-yl)-piperazin-1-yl]-2-[2-(2,4,6-trimethyl-phenylsulfonyl)-1,2,3,4-tetrahydro-isoquinolin-3-ylmethoxy]-ethanone]	103	103
